In general, Ki refers to a dissociation constant, usually derived from enzyme kinetics or from competition with a known ligand.

Structures are written as SMILES.

The assay addresses T1, Human Neuropeptide Y2 Receptor (Homo sapiens, UniProt P49146).
T1 construct: purchased CHEMICON HTS066M
T1 sequence (P49146 1-381): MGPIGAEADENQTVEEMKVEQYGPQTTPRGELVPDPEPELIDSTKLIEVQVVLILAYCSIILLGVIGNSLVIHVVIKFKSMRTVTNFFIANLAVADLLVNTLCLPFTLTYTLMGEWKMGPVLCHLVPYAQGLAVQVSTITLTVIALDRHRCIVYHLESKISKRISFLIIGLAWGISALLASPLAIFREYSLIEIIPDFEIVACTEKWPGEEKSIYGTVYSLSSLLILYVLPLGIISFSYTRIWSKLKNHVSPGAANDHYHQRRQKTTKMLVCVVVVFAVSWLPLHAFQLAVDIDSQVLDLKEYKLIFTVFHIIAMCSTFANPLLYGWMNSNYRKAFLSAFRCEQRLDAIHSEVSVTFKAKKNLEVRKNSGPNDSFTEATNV
Kind of assay: Radioligand binding competition assay (RLB). Particulars: Table 3; human 125I-PYY (1-36) 0.02 nM, Y2 receptor membranes; read-out: Ki. A digest of the protocol: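 Filtration format; Y2R membrane prep 0.5 μg/well; buffer 50 mM HEPES/5 mM MgCl2/1 mM CaCl2/0.2% ovalbumin pH 7.4; 2 h RT, shaking. Harvest on PEI-soaked GF/C, ice-cold HEPES/500 mM NaCl washes, scintillation count. IC50 by nonlinear fit.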
Turning to `CC[C@H](C)[C@H](NC(=O)[C@H](Cc1ccc(O)cc1)NC(=O)[C@H](Cc1ccc(O)cc1)NC(=O)[C@H](CCCNC(=N)N)NC(=O)[C@H](CCC(N)=O)NC(=O)[C@H](CC(C)C)NC(=O)[C@H](CCC(=O)O)NC(=O)[C@H](CCC(=O)O)NC(=O)[C@@H]1CCCN1C(=O)[C@H](CO)NC(=O)[C@H](C)NC(=O)[C@H](CC(=O)O)NC(=O)[C@H](CCC(=O)O)NC(=O)[C@H](CCC(=O)O)NC(=O)[C@@H]1CCCN1C(=O)[C@H](CCCCNC(=O)COCCOCCNC(=O)COCCOCCNC(=O)CC[C@H](NC(=O)CCCCCCCCCCCCCCCCC(=O)O)C(=O)O)NC(=O)[C@H](CCC(=O)O)NC(=O)[C@@H]1CCCN1C(=O)[C@H](C)NC(=O)CC(C)C)C(=O)N[C@@H](CO)C(=O)N[C@@H](CC(C)C)C(=O)N[C@@H](CCCNC(=N)N)C(=O)N[C@@H](Cc1c[nH]cn1)C(=O)N[C@@H](Cc1ccc(O)cc1)C(=O)N[C@@H](Cc1ccc(O)cc1)C(=O)N[C@@H](CC(N)=O)C(=O)N[C@@H](Cc1c[nH]c2ccccc12)C(=O)N[C@@H](CC(C)C)C(=O)N[C@H](C(=O)N[C@@H](CCCNC(=N)N)C(=O)N[C@@H](CCC(N)=O)C(=O)N[C@@H](CCCNC(=N)N)C(=O)N[C@@H](Cc1ccc(O)cc1)C(N)=O)[C@@H](C)O` [Compound 191, N{alpha-4}-(3-methylbutanoyl)-N{epsilon-7}-[2-(2-{2-[2-(2-{2-[(4S)-4-carboxy-4-(17-carboxyheptadecanamido)butanamido]ethoxy}ethoxy)acetamido]ethoxy}ethoxy)acetamido]-[4A,7K,9E,18Q,22I,28Y,30W,31L]hPYY (4-36)], the Ki was found to be 1.7 nM.
Turning to `CC(C)CC(=O)N[C@@H](C)C(=O)N1CCC[C@H]1C(=O)N[C@@H](CCC(=O)O)C(=O)N[C@@H](CCCCNC(=O)COCCOCCNC(=O)COCCOCCNC(=O)CC[C@H](NC(=O)CCCCCCCCCCCCCCCCC(=O)O)C(=O)O)C(=O)N1CCC[C@H]1C(=O)N[C@@H](CCC(=O)O)C(=O)N[C@@H](CCC(=O)O)C(=O)N[C@@H](CC(=O)O)C(=O)N[C@@H](C)C(=O)N[C@@H](C)C(=O)N1CCC[C@H]1C(=O)N[C@@H](C)C(=O)N[C@@H](CCC(=O)O)C(=O)N[C@@H](CC(C)C)C(=O)N[C@@H](CCC(N)=O)C(=O)N[C@@H](CCCNC(=N)N)C(=O)N[C@@H](Cc1ccc(O)cc1)C(=O)N[C@@H](Cc1ccc(O)cc1)C(=O)N[C@H](C(=O)N[C@@H](CO)C(=O)N[C@@H](CC(C)C)C(=O)N[C@@H](CCCNC(=N)N)C(=O)N[C@@H](Cc1c[nH]cn1)C(=O)N[C@@H](Cc1ccc(O)cc1)C(=O)N[C@@H](Cc1ccc(O)cc1)C(=O)N[C@@H](CC(N)=O)C(=O)N[C@@H](Cc1c[nH]c2ccccc12)C(=O)N[C@@H](CC(C)C)C(=O)N[C@H](C(=O)N[C@@H](CCCNC(=N)N)C(=O)N[C@@H](CCC(N)=O)C(=O)N[C@@H](CCCNC(=N)N)C(=O)N[C@@H](Cc1ccc(O)cc1)C(N)=O)[C@@H](C)O)C(C)C` [Compound 192, N{alpha-4}-(3-methylbutanoyl)-N{epsilon-7}-[2-(2-{2-[2-(2-{2-[(4S)-4-carboxy-4-(17-carboxyheptadecanamido)butanamido]ethoxy}ethoxy)acetamido]ethoxy}ethoxy)acetamido]-[4A,7K,9E,13A,15A,18Q,22V,28Y,30W,31L]hPYY (4-36)], the inhibition constant (Ki) worked out at 1.65 nM.
With `CC(C)CC(=O)N[C@@H](C)C(=O)N1CCC[C@H]1C(=O)N[C@@H](C)C(=O)N[C@@H](CCCCNC(=O)COCCOCCNC(=O)COCCOCCNC(=O)CC[C@H](NC(=O)CCCCCCCCCCCCCCCCC(=O)O)C(=O)O)C(=O)N1CCC[C@H]1C(=O)N1CCC[C@H]1C(=O)N[C@@H](CCC(=O)O)C(=O)N[C@@H](CC(=O)O)C(=O)N[C@@H](C)C(=O)N[C@@H](CCC(=O)O)C(=O)N1CCC[C@H]1C(=O)N[C@@H](CCC(=O)O)C(=O)N[C@@H](CCC(=O)O)C(=O)N[C@@H](CC(C)C)C(=O)N[C@@H](CCC(N)=O)C(=O)N[C@@H](CCCNC(=N)N)C(=O)N[C@@H](Cc1ccc(O)cc1)C(=O)N[C@@H](Cc1ccc(O)cc1)C(=O)N[C@H](C(=O)N[C@@H](CO)C(=O)N[C@@H](CC(C)C)C(=O)N[C@@H](CCCNC(=N)N)C(=O)N[C@@H](Cc1c[nH]cn1)C(=O)N[C@@H](Cc1ccc(O)cc1)C(=O)N[C@@H](Cc1ccc(O)cc1)C(=O)N[C@@H](CC(N)=O)C(=O)N[C@@H](Cc1c[nH]c2ccccc12)C(=O)N[C@@H](CC(C)C)C(=O)N[C@H](C(=O)N[C@@H](CCCNC(=N)N)C(=O)N[C@@H](CCC(N)=O)C(=O)N[C@@H](CCCNC(=N)N)C(=O)N[C@@H](Cc1ccc(O)cc1)C(N)=O)[C@@H](C)O)C(C)C` [Compound 196, N{alpha-4}-(3-methylbutanoyl)-N{epsilon-7}-[2-(2-{2-[2-(2-{2-[(4S)-4-carboxy-4-(17-carboxyheptadecanamido)butanamido]ethoxy}ethoxy)acetamido]ethoxy}ethoxy)acetamido]-[4A,6A,7K,9P,13E,18Q,22V,28Y,30W,31L]hPYY (4-36)], the Ki was 0.98 nM.
The value for `CC(C)CC(=O)N[C@@H](C)C(=O)N1CCC[C@H]1C(=O)N[C@@H](C)C(=O)N[C@@H](CCCCNC(=O)COCCOCCNC(=O)COCCOCCNC(=O)CC[C@H](NC(=O)CCCCCCCCCCCCCCCCC(=O)O)C(=O)O)C(=O)N1CCC[C@H]1C(=O)N[C@@H](CCC(=O)O)C(=O)N[C@@H](C)C(=O)N[C@@H](CC(=O)O)C(=O)N[C@@H](C)C(=O)N[C@@H](CO)C(=O)N1CCC[C@H]1C(=O)N[C@@H](CCC(=O)O)C(=O)N[C@@H](CCC(=O)O)C(=O)N[C@@H](CC(C)C)C(=O)N[C@@H](CCC(N)=O)C(=O)N[C@@H](CCCNC(=N)N)C(=O)N[C@@H](Cc1ccc(O)cc1)C(=O)N[C@@H](Cc1ccc(O)cc1)C(=O)N[C@H](C(=O)N[C@@H](CCC(=O)O)C(=O)N[C@@H](CC(C)C)C(=O)N[C@@H](CCCNC(=N)N)C(=O)N[C@@H](Cc1c[nH]cn1)C(=O)N[C@@H](Cc1ccc(O)cc1)C(=O)N[C@@H](Cc1ccc(O)cc1)C(=O)N[C@@H](CC(N)=O)C(=O)N[C@@H](Cc1c[nH]c2ccccc12)C(=O)N[C@@H](CC(C)C)C(=O)N[C@H](C(=O)N[C@@H](CCCNC(=N)N)C(=O)N[C@@H](CCC(N)=O)C(=O)N[C@@H](CCCNC(=N)N)C(=O)N[C@@H](Cc1ccc(O)cc1)C(N)=O)[C@@H](C)O)C(C)C` [Compound 197, N{alpha-4}-(3-methylbutanoyl)-N{epsilon-7}-[2-(2-{2-[2-(2-{2-[(4S)-4-carboxy-4-(17-carboxyheptadecanamido)butanamido]ethoxy}ethoxy)acetamido]ethoxy}ethoxy)acetamido]-[4A,6A,7K,9E,10A,18Q,22V,23E,28Y,30W,31L]hPYY (4-36)] was 0.87 nM; that for `CC(C)CC(=O)N[C@@H](C)C(=O)N1CCC[C@H]1C(=O)N[C@@H](CCC(=O)O)C(=O)N[C@@H](CCCCNC(=O)COCCOCCNC(=O)COCCOCCNC(=O)CC[C@H](NC(=O)CCCCCCCCCCCCCCCCC(=O)O)C(=O)O)C(=O)N1CCC[C@H]1C(=O)N[C@@H](CCC(=O)O)C(=O)N[C@@H](CCC(=O)O)C(=O)N[C@@H](CC(=O)O)C(=O)N[C@@H](C)C(=O)N[C@@H](CCC(=O)O)C(=O)N1CCC[C@H]1C(=O)N[C@@H](CCC(=O)O)C(=O)N[C@@H](CCC(=O)O)C(=O)N[C@H](C(=O)N[C@@H](CCC(N)=O)C(=O)N[C@@H](CCCNC(=N)N)C(=O)N[C@@H](Cc1ccc(O)cc1)C(=O)N[C@@H](Cc1ccc(O)cc1)C(=O)N[C@H](C(=O)N[C@@H](CO)C(=O)N[C@@H](CC(C)C)C(=O)N[C@@H](CCCNC(=N)N)C(=O)N[C@@H](Cc1c[nH]cn1)C(=O)N[C@@H](Cc1ccc(O)cc1)C(=O)N[C@@H](Cc1ccc(O)cc1)C(=O)N[C@@H](CC(N)=O)C(=O)N[C@@H](Cc1c[nH]c2ccccc12)C(=O)N[C@@H](CC(C)C)C(=O)N[C@H](C(=O)N[C@@H](CCCNC(=N)N)C(=O)N[C@@H](CCC(N)=O)C(=O)N[C@@H](CCCNC(=N)N)C(=O)N[C@@H](Cc1ccc(O)cc1)C(N)=O)[C@@H](C)O)C(C)C)[C@@H](C)O` [Compound 199, N{alpha-4}-(3-methylbutanoyl)-N{epsilon-7}-[2-(2-{2-[2-(2-{2-[(4S)-4-carboxy-4-(17-carboxyheptadecanamido)butanamido]ethoxy}ethoxy)acetamido]ethoxy}ethoxy)acetamido]-[4A,7K,9E,13E,17T,18Q,22V,28Y,30W,31L]hPYY (4-36)] was 5.69 nM.

These data come from US12559529B2, “NPY2 receptor agonists” (Boehringer Ingelheim International GmbH, priority 2019, dated 2026).
